From PMC5741510 (Cell chemical biology, 2017)

Biological target: dihydroorotate dehydrogenase (DHODH) (Escherichia coli, UniProt P0A7E1)
Assay: continuous DCIP-reduction assay at […] nm, Lineweaver-Burk analysis
Type: biochemical

Sequence of dihydroorotate dehydrogenase (DHODH) (P0A7E1 whole entry): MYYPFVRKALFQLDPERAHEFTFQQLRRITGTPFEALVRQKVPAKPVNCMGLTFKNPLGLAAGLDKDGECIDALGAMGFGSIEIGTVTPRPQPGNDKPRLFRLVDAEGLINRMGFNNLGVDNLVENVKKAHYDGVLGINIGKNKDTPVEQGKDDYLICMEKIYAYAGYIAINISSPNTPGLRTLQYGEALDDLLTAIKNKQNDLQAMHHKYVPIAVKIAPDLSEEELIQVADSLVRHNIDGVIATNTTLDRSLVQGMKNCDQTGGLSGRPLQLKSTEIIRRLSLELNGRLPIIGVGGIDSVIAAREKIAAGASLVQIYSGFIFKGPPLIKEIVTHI

| SMILES | Ki [nM] |
| --- | --- |
| CCCCCCC=CCc1nc2ccccc2c(O)c1C [HMNQ, 4-hydroxy-3-methyl-2-(2-nonenyl)-quinoline] | 51 |
| CCCCCCCc1cc(=O)c2ccccc2n1O [HQNO, 2-heptyl-4(1H)-quinolone N-oxide] | 239 |
